Results published in patent US6461997B1, “Triazole sulfones having herbicidal activity” (Monsanto Technology LLC, priority 1999, dated 2002).

Test system: GALAP (catchweed bedstraw)
Assay: Pre-emergence herbicidal activity, cool season
Type: in vivo, Galium aparine
Conditions: lowest tested rate with 80% or greater inhibition; rates 300, 100, 30, 10 g/ha; about 14 days
Method in brief: (§1)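 GR80 values derive from percent inhibition relative to untreated plants, read roughly 14 days after sowing and pre-emergence soil-surface treatment (compound in 50:50 acetone/water; rates typically 10, 30, 100, 300 g/ha). Warm-season weeds grew at 30/21° C day/night, cool-season ones at 18/13° C; an asterisk marks activity without reaching 80% at the highest rate.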

SMILES	Pre-emergence activity GR80, GALAP [g/ha]
CCN(CC)C(=O)n1cnc(S(=O)(=O)C(F)(F)SCCOC)n1 [Example 13]	100

Test system: LAMPU (purple deadnettle)
Assay: Pre-emergence herbicidal activity, cool season
Type: in vivo, Lamium purpureum
Conditions: lowest tested rate with 80% or greater inhibition; rates 300, 100, 30, 10 g/ha; about 14 days
Method in brief: as §1

SMILES	Pre-emergence activity GR80, LAMPU [g/ha]
CCN(CC)C(=O)n1cnc(S(=O)(=O)C(F)(F)SCCOC)n1 [Example 13]	100

Test system: SORHA (johnsongrass (seedling))
Assay: Pre-plant incorporated (PPI) herbicidal activity, warm season
Type: in vivo, Sorghum halepense
Conditions: PPI application, 10 g/ha
Protocol: (§2) In another set of tests, the pre-plant incorporated (PPI) activity of compounds of this invention was evaluated on the same species as for the pre-emergence tests described above. In the PPI tests the following procedure, designed to simulate PPI application, was used.
(§3) A pre-prepared topsoil mixture (described above) was placed in a pot and compacted to a depth of 1.0 to 1.25 cm from the top of the pot. Seeds of each of several monocotyledonous and dicotyledonous annual plant species were placed on top of the soil. A sufficient quantity of soil to cover the seeds and level fill the pot was weighed into an open container. A known amount of the test compound was dissolved or suspended in an organic solvent and applied by spraying to this cover soil. The cover soil was thoroughly mixed to distribute the test compound throughout the cover soil, and was then applied as a cover layer over the seeds. Untreated soil was used as a cover layer for control pots. After treatment the plants were placed in a greenhouse where they received 0.64 cm of overhead irrigation. All subsequent watering consisted of a light overhead mist and/or subirrigation as needed for germination and growth. Tables 9 and 10 below relate to warm season plant species which were placed after pre-emergence treatment in a greenhouse with a 30/21° C. day/night temperature regime. Tables 11 and 12 below relates to cool season plant species placed after pre-emergence treatment in a greenhouse or growth chamber with an 18/13° C. day/night temperature regime. Only the compounds of Examples 1, 6, 8, 11, 13 and 15-20 were included in PPI tests.
(§4) Approximately 14 days after planting and treating, the plants were observed and herbicidal efficacy recorded as percent inhibition by comparison with untreated plants.

SMILES	Percent inhibition SORHA [%]
CCN(CC)C(=O)n1cnc(S(=O)(=O)C(F)(F)SCCOC)n1 [Example 13]	30

Same assay, conditions: PPI application, 30 g/ha

SMILES	Percent inhibition SORHA [%]
CCN(CC)C(=O)n1cnc(S(=O)(=O)C(F)(F)SCCOC)n1 [Example 13]	100

Same assay, conditions: PPI application, 100 g/ha

SMILES	Percent inhibition SORHA [%]
CCN(CC)C(=O)n1cnc(S(=O)(=O)C(F)(F)SCCOC)n1 [Example 13]	90

Same assay, conditions: PPI application, 300 g/ha

SMILES	Percent inhibition SORHA [%]
CCN(CC)C(=O)n1cnc(S(=O)(=O)C(F)(F)SCCOC)n1 [Example 13]	100

Same assay, conditions: PPI application, 900 g/ha

SMILES	Percent inhibition SORHA [%]
CCN(CC)C(=O)n1cnc(S(=O)(=O)C(F)(F)SCCOC)n1 [Example 13]	100

Same assay, conditions: pre-plant incorporated; lowest tested rate with 80% or greater inhibition; about 14 days

SMILES	PPI activity GR80, SORHA [g/ha]
CCN(CC)C(=O)n1cnc(S(=O)(=O)C(F)(F)SCCOC)n1 [Example 13]	100

Test system: BRAPP (broadleaf signalgrass)
Assay: as above
Type: in vivo, Brachiaria platyphylla
Conditions: PPI application, 10 g/ha
Protocol: as §2, §3, §4

SMILES	Percent inhibition BRAPP [%]
CCN(CC)C(=O)n1cnc(S(=O)(=O)C(F)(F)SCCOC)n1 [Example 13]	40

Same assay, conditions: PPI application, 30 g/ha

SMILES	Percent inhibition BRAPP [%]
CCN(CC)C(=O)n1cnc(S(=O)(=O)C(F)(F)SCCOC)n1 [Example 13]	80

Same assay, conditions: PPI application, 100 g/ha

SMILES	Percent inhibition BRAPP [%]
CCN(CC)C(=O)n1cnc(S(=O)(=O)C(F)(F)SCCOC)n1 [Example 13]	95

Same assay, conditions: PPI application, 300 g/ha

SMILES	Percent inhibition BRAPP [%]
CCN(CC)C(=O)n1cnc(S(=O)(=O)C(F)(F)SCCOC)n1 [Example 13]	99

Same assay, conditions: PPI application, 900 g/ha

SMILES	Percent inhibition BRAPP [%]
CCN(CC)C(=O)n1cnc(S(=O)(=O)C(F)(F)SCCOC)n1 [Example 13]	100

Same assay, conditions: pre-plant incorporated; lowest tested rate with 80% or greater inhibition; about 14 days

SMILES	PPI activity GR80, BRAPP [g/ha]
CCN(CC)C(=O)n1cnc(S(=O)(=O)C(F)(F)SCCOC)n1 [Example 13]	100

Test system: LAMPU (purple deadnettle)
Assay: Pre-plant incorporated (PPI) herbicidal activity, cool season
Type: in vivo, Lamium purpureum
Conditions: pre-plant incorporated; lowest tested rate with 80% or greater inhibition; about 14 days
Protocol: as §2, §3, §4

SMILES	PPI activity GR80, LAMPU [g/ha]
CCN(CC)C(=O)n1cnc(S(=O)(=O)C(F)(F)SCCOC)n1 [Example 13]	30

Same assay, conditions: weed, PPI application, 10 g/ha

SMILES	Percent inhibition LAMPU [%]
CCN(CC)C(=O)n1cnc(S(=O)(=O)C(F)(F)SCCOC)n1 [Example 13]	0

Same assay, conditions: weed, PPI application, 100 g/ha

SMILES	Percent inhibition LAMPU [%]
CCN(CC)C(=O)n1cnc(S(=O)(=O)C(F)(F)SCCOC)n1 [Example 13]	0

Same assay, conditions: weed, PPI application, 300 g/ha

SMILES	Percent inhibition LAMPU [%]
CCN(CC)C(=O)n1cnc(S(=O)(=O)C(F)(F)SCCOC)n1 [Example 13]	0

Same assay, conditions: weed, PPI application, 900 g/ha

SMILES	Percent inhibition LAMPU [%]
CCN(CC)C(=O)n1cnc(S(=O)(=O)C(F)(F)SCCOC)n1 [Example 13]	90

Test system: AGSST (creeping bentgrass)
Assay: as above
Type: in vivo, Agrostis stolonifera
Conditions: pre-plant incorporated; lowest tested rate with 80% or greater inhibition; about 14 days
Protocol: as §2, §3, §4

SMILES	PPI activity GR80, AGSST [g/ha]
CCN(CC)C(=O)n1cnc(S(=O)(=O)C(F)(F)SCCOC)n1 [Example 13]	30

Same assay, conditions: weed, PPI application, 10 g/ha

SMILES	Percent inhibition AGSST [%]
CCN(CC)C(=O)n1cnc(S(=O)(=O)C(F)(F)SCCOC)n1 [Example 13]	60

Same assay, conditions: weed, PPI application, 30 g/ha

SMILES	Percent inhibition AGSST [%]
CCN(CC)C(=O)n1cnc(S(=O)(=O)C(F)(F)SCCOC)n1 [Example 13]	95

Same assay, conditions: weed, PPI application, 100 g/ha

SMILES	Percent inhibition AGSST [%]
CCN(CC)C(=O)n1cnc(S(=O)(=O)C(F)(F)SCCOC)n1 [Example 13]	100

Same assay, conditions: weed, PPI application, 300 g/ha

SMILES	Percent inhibition AGSST [%]
CCN(CC)C(=O)n1cnc(S(=O)(=O)C(F)(F)SCCOC)n1 [Example 13]	100

Same assay, conditions: weed, PPI application, 900 g/ha

SMILES	Percent inhibition AGSST [%]
CCN(CC)C(=O)n1cnc(S(=O)(=O)C(F)(F)SCCOC)n1 [Example 13]	100

Test system: SETVI (green foxtail)
Assay: Post-emergence herbicidal activity, cool season
Type: in vivo, Setaria viridis
Conditions: abraded plants sprayed at 300, 100, 30 and 10 g/ha; about 14 days after treatment
Method in brief: (§5)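 Post-emergence foliar spray; plants abraded (garnet 200w, ~850 kPa sandblast) before application. Rates 300/100/30/10 g/ha in 50:50 acetone:water, 3,100 l/ha, 511 kPa. Greenhouse 18/13° C. day/night; % inhibition vs abraded unsprayed controls at ~14 days after treatment, GR80 derived.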

SMILES	Post-emergence activity GR80, SETVI
CCN(CC)C(=O)n1cnc(S(=O)(=O)C(F)(F)SCCOC)n1 [Example 13]	[empty]

Test system: AGRRE (quackgrass (seedling))
Assay: Post-emergence herbicidal activity, cool season
Type: in vivo, Elymus repens
Conditions: abraded plants sprayed at 300, 100, 30 and 10 g/ha; about 14 days after treatment
Method in brief: as §5

SMILES	Post-emergence activity GR80, AGRRE
CCN(CC)C(=O)n1cnc(S(=O)(=O)C(F)(F)SCCOC)n1 [Example 13]	[empty]
